Values quoted from earlier work in patent US11590237B2, “Pharmaceutical formulation comprising incretin-insulin conjugates” (Merck Sharp & Dohme Corp., priority 2017, dated 2023).

Settings: literature data [21]

For `CCCCCCCCCCCCCCCC(=O)N[C@@H](CCC(=O)NCCCC[C@H](NC(=O)[C@H](C)NC(=O)[C@H](C)NC(=O)[C@H](CCC(N)=O)NC(=O)CNC(=O)[C@H](CCC(=O)O)NC(=O)[C@H](CC(C)C)NC(=O)[C@H](Cc1ccc(O)cc1)NC(=O)[C@H](CO)NC(=O)[C@H](CO)NC(=O)[C@@H](NC(=O)[C@H](CC(=O)O)NC(=O)[C@H](CO)NC(=O)[C@@H](NC(=O)[C@H](Cc1ccccc1)NC(=O)[C@@H](NC(=O)CNC(=O)[C@H](CCC(=O)O)NC(=O)[C@H](C)NC(=O)[C@@H](N)Cc1cnc[nH]1)[C@@H](C)O)[C@@H](C)O)C(C)C)C(=O)N[C@@H](CCC(=O)O)C(=O)N[C@@H](Cc1ccccc1)C(=O)N[C@H](C(=O)N[C@@H](C)C(=O)N[C@@H](Cc1c[nH]c2ccccc12)C(=O)N[C@@H](CC(C)C)C(=O)N[C@H](C(=O)N[C@@H](CCCNC(=N)N)C(=O)NCC(=O)N[C@@H](CCCNC(=N)N)C(=O)NCC(=O)O)C(C)C)[C@@H](C)CC)C(=O)O` [liraglutide], the “Number of monomers in oligomers” value is listed as 6-12 monomers.
